Activity calls are given as the source filed them. No cut-off for these calls is given here.
What was measured:
[1] = molecular target: T1, Serine/threonine-protein kinase DCLK1 (Homo sapiens) (UniProt O15075); assay: Inhibition of DCLK1 (unknown origin) at 200 nM preincubated for 10 mins followed by substrate/ATP addition measured after 60 mins by mobility shift assay relative to control; conditions: time 70.0 min
T1 sequence (whole entry): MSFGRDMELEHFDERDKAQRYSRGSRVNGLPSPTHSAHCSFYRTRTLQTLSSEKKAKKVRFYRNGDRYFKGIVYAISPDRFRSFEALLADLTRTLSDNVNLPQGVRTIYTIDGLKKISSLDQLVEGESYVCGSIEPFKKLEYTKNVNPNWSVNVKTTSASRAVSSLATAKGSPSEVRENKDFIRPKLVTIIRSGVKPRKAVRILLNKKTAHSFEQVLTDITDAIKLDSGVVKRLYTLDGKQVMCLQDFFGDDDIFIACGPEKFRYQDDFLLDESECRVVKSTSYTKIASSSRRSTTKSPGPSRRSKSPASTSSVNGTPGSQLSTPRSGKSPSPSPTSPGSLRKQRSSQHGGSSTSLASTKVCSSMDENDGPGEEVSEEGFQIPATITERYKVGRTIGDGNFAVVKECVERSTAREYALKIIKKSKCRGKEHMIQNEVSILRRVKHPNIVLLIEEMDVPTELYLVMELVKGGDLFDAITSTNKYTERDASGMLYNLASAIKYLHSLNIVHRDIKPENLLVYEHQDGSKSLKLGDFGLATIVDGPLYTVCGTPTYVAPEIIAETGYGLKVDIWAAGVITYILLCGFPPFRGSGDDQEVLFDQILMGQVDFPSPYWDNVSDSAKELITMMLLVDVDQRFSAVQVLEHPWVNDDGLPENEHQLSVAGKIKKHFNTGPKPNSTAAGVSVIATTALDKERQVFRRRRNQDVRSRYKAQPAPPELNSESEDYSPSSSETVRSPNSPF

SW1990 [2] = assay: Antiproliferative activity against human SW1990 cells assessed as inhibition cell proliferation incubated for 6 days by MTT assay; assay type: functional, cell-based; conditions: SW1990, 144 h
HCT-116 = assay: Antiproliferative activity against human HCT-116 cells assessed as inhibition cell proliferation incubated for 6 days by MTT assay; assay type: functional, cell-based; conditions: HCT-116, 144 h
CAKI-1 = assay: Antiproliferative activity against human CAKI-1 cells assessed as inhibition cell proliferation incubated for 6 days by MTT assay; assay type: functional, cell-based; conditions: CAKI-1, 144 h
SW1990 [3] = assay: Potency index, ratio of DCLK1-IN-1 IC50 to test compound IC50 for human SW1990 cells assessed as inhibition cell proliferation incubated for 6 days by MTT assay; assay type: functional; conditions: time 6 day
SW1990 [4] = assay: Inhibition of colony formation of human SW1990 cells at 2 uM incubated for 6 days by crystal violet staining based analysis; assay type: functional, cell-based; conditions: time 6.0 day
SW1990 [5] = assay: Induction of apoptosis in human SW1990 cells assessed as viable cells at 0.5 uM incubated for 6 days by Annexin V/PI staining based flow cytometry (reference value: 92.93 %); assay type: functional; conditions: SW1990, 144 h, time 6 day, read-out: Activity
SW1990 [6] = assay: Induction of apoptosis in human SW1990 cells assessed as early apoptotic cells at 0.5 uM incubated for 6 days by Annexin V/PI staining based flow cytometry (reference value: 4.55 %); assay type: functional; conditions: time 6 day
SW1990 [7] = assay: Induction of apoptosis in human SW1990 cells assessed as late apoptotic cells at 0.5 uM incubated for 6 days by Annexin V/PI staining based flow cytometry (reference value: 2.01 %); assay type: functional; conditions: time 6 day
SW1990 [8] = assay: Induction of apoptosis in human SW1990 cells assessed as necrotic cells at 0.5 uM incubated for 6 days by Annexin V/PI staining based flow cytometry (reference value: 0.50 %); assay type: functional; conditions: time 6 day
SW1990 [9] = assay: Induction of apoptosis in human SW1990 cells assessed as viable cells at 1 uM incubated for 6 days by Annexin V/PI staining based flow cytometry (reference value: 92.93 %); assay type: functional; conditions: SW1990, 144 h, time 6 day, read-out: Activity
SW1990 [10] = assay: Induction of apoptosis in human SW1990 cells assessed as early apoptotic cells at 1 uM incubated for 6 days by Annexin V/PI staining based flow cytometry (reference value: 4.55 %); assay type: functional; conditions: time 6 day
SW1990 [11] = assay: Induction of apoptosis in human SW1990 cells assessed as late apoptotic cells at 1 uM incubated for 6 days by Annexin V/PI staining based flow cytometry (reference value: 2.01 %); assay type: functional; conditions: time 6 day
SW1990 [12] = assay: Induction of apoptosis in human SW1990 cells assessed as necrotic cells at 1 uM incubated for 6 days by Annexin V/PI staining based flow cytometry (reference value: 0.50 %); assay type: functional; conditions: time 6 day
SW1990 [13] = assay: Induction of apoptosis in human SW1990 cells assessed as viable cells at 2 uM incubated for 6 days by Annexin V/PI staining based flow cytometry (reference value: 92.93 %); assay type: functional; conditions: SW1990, 144 h, time 6 day, read-out: Activity
SW1990 [14] = assay: Induction of apoptosis in human SW1990 cells assessed as early apoptotic cells at 2 uM incubated for 6 days by Annexin V/PI staining based flow cytometry (reference value: 4.55 %); assay type: functional; conditions: time 6 day
SW1990 [15] = assay: Induction of apoptosis in human SW1990 cells assessed as late apoptotic cells at 2 uM incubated for 6 days by Annexin V/PI staining based flow cytometry (reference value: 2.01 %); assay type: functional; conditions: time 6 day
SW1990 [16] = assay: Induction of apoptosis in human SW1990 cells assessed as necrotic cells at 2 uM incubated for 6 days by Annexin V/PI staining based flow cytometry (reference value: 0.50 %); assay type: functional; conditions: time 6 day
SW1990 [17] = assay: Induction of cell cycle arrest at G0/G1 phase in human SW1990 cells at 0.5 uM incubated for 6 days by PI staining based flow cytometry (reference value: 49.65 %); assay type: functional; conditions: time 6 day
SW1990 [18] = assay: Induction of cell cycle arrest at S phase in human SW1990 cells at 0.5 uM incubated for 6 days by PI staining based flow cytometry (reference value: 21.20 %); assay type: functional; conditions: time 6 day
SW1990 [19] = assay: Induction of cell cycle arrest at G2/M phase in human SW1990 cells at 0.5 uM incubated for 6 days by PI staining based flow cytometry (reference value: 29.15 %); assay type: functional; conditions: time 6 day
SW1990 [20] = assay: Induction of cell cycle arrest at G0/G1 phase in human SW1990 cells at 1 uM incubated for 6 days by PI staining based flow cytometry (reference value: 49.65 %); assay type: functional; conditions: time 6 day
SW1990 [21] = assay: Induction of cell cycle arrest at S phase in human SW1990 cells at 1 uM incubated for 6 days by PI staining based flow cytometry (reference value: 21.20 %); assay type: functional; conditions: time 6 day
SW1990 [22] = assay: Induction of cell cycle arrest at G2/M phase in human SW1990 cells at 1 uM incubated for 6 days by PI staining based flow cytometry (reference value: 29.15 %); assay type: functional; conditions: time 6 day
SW1990 [23] = assay: Induction of cell cycle arrest at G0/G1 phase in human SW1990 cells at 2 uM incubated for 6 days by PI staining based flow cytometry (reference value: 49.65 %); assay type: functional; conditions: time 6 day

`COc1cc(N2CCN(C)CC2)ccc1Nc1nc(Nc2ccccc2S(=O)(=O)C(C)C)c2nc[nH]c2n1` gave an inhibition [1] of 29.8%, an IC50 (SW1990 [2]) of 600 nM and an IC50 (HCT-116) of 3000 nM. For the same compound, the IC50 (CAKI-1) was 10.1 µM, the “Ratio IC50” value (SW1990 [3]) was 22 and the inhibition (SW1990 [4]) was “Active”. The viability at 0.5 µM (SW1990 [5]) was 78.5%, the Activity (SW1990 [6]) was 9.19% and the Activity (SW1990 [7]) was 6.77%. The Activity (SW1990 [8]) was 5.58%, the viability at 1 µM (SW1990 [9]) was 65.3% and the Activity (SW1990 [10]) was 19.46%. For the same compound, the Activity (SW1990 [11]) was 7.06%, the Activity (SW1990 [12]) was 8.2% and the viability at 2 µM (SW1990 [13]) was 61%. The Activity (SW1990 [14]) was 21.76%, the Activity (SW1990 [15]) was 11.39% and the Activity (SW1990 [16]) was 5.86%. The Activity (SW1990 [17]) was 52.79%, the Activity (SW1990 [18]) was 19.66% and the Activity (SW1990 [19]) was 27.55%. For the same compound, the Activity (SW1990 [20]) was 56.78%, the Activity (SW1990 [21]) was 19.75% and the Activity (SW1990 [22]) was 23.47%. For the same compound, the Activity (SW1990 [23]) was 63.14%.
